Literature values in patent US20220202849A1, “PERK AS A TARGET FOR VIRUS THERAPEUTICS” (priority 2020, published 2022).

Test system: PERK
Settings: as quoted with vendor catalog entry; read-out: PERK inhibitor IC50

Compound | IC50 [nM]
Cc1cccc(CC(=O)N2CCc3c2ccc(-c2cn(C)c4ncnc(N)c24)c3F)n1 [GSK2656157] | ~0.9
O=C(COc1ccc(Cl)cc1)N[C@H]1CC[C@@H](NC(=O)COc2ccc(Cl)cc2)CC1 [ISRIB (trans-isomer), ISRIB] | ~5
